{
  "source": "patent US20130047297A1",
  "about": "“POLYNUCLEOTIDE MOLECULES FOR GENE REGULATION IN PLANTS” (priority 2010, published 2013)",
  "assay_type_in_all_cases": "in vivo",
  "key": {"Palmer amaranth": {"system": "Palmer amaranth", "assay": "Combinations of EPSPS, TIF and ddATPase polynucleotides then glyphosate (Example 26, Tables 12 and 13)", "method": "Solutions of the polynucleotides were prepared and applied to the leaves of Palmer amaranth using the protocols described in Table 12."}, "[1]": {"system": "Glyphosate-sensitive Palmer amaranth (Amaranthus palmeri) plants", "assay": "HPPD, PPO, TIF anti-sense ssDNA with mesotrione, fomesafen, atrazine, plant height (Example 28, Tables 18 and 19)", "details": "for Plant height (mm): four days after herbicide treatment", "method": "The herbicidal activity of ssDNA polynucleotides that target the enzymes […] and protoporphyrinogen oxidase (PPO), and a transcription initiation factor (TIF), and their effect on the herbicide activity when used in combination with the herbicides mesotrione, fomesafen, and atrazine in Palmer amaranth was investigated.\nGlyphosate-sensitive Palmer amaranth (Amaranthus palmeri) plants were grown in 4-inch square pots with Sun Gro® Redi-Earth seedling mix containing 3.5 kg/cubic meter Osmocote® 14-14-14 fertilizer in a greenhouse with 14 h photoperiod and a daytime temperature of 30 degrees Celsius and night temperature of 20 degrees Celsius. The plants were sub-irrigated as necessary.\nPlants at 10 to 15 cm height were pre-treated manually with 40 microliters (4 fully expanded mature leaves were treated with 10 microliters of solution per leaf on each plant) of a buffer-surfactant solution (as a control; 0.5% Silwet L-77 and 2% ammonium sulfate), or a buffer-surfactant-ssDNA polynucleotide mixture of the anti-sense oligonucleotides targetting HPPD, PPO, or TIF. Some plants were left untreated and were used as controls. […] Crop oil concentrate (COC) at 1% was added to all herbicide treatments. A low rate of each herbicide ([…], equivalent to ⅛ of the recommended field rate; […], equivalent to 1/22 of the recommended field rate; […], equivalent to ⅛ of the recommended field rate,) was used to be able to detect any improvement of herbicide activity by the oligonucleotide mixture.\nPlant height was determined at four days after herbicide treatment. Data were collected from one experiment with four replications per treatment."}, "[2]": {"system": "Palmer amaranth phytoene desaturase (PDS)", "assay": "Sequence specificity of PDS dsRNA on Palmer amaranth, bleaching (Example 11)", "details": "for bleaching of leaves: 0.6 micromolar polynucleotide, 40 microliters per plant, observed 3 days post treatment; for bleaching of leaves (FIG. 17): separate assay", "method": "Palmer amaranth plants having 16 copies of EPSPS and 5-8 inches high were treated with 0.1% Silwet L-77 solution freshly made with ddH2O. Four fully expanded leaves per plant were dipped into the Silwet L-77 solution for a few seconds, and allowed to dry for 30 minutes to 1 hour before application of the polynucleotide composition. Individual polynucleotide solutions were made for each of the 678 by Palmer PDS dsRNA, 198 by Palmer PDS dsRNA, the 685 by Nicotiana benthamiana PDS dsRNA, and the 192 by Nicotiana benthamiana PDS dsRNA (0.6 micromolar polynucleotide in 0.01% Silwet L-77, 5 mM sodium phosphate buffer, pH 6.8). 10 microliters of polynucleotide solution (or buffer as a control) was applied to the top surface of each of the four pre-treated leaves per plant to provide a total of 40 microliters for each plant. Plants were kept in a growth chamber, and leaf bleaching was observed 3 days post treatment."}, "[3]": {"system": "mRNA encoding phytoene desaturase in tobacco (Nicotiana benthamiana)", "assay": "Topical PDS dsRNA on tobacco, bleaching (Example 4)", "from_the_text": "This example illustrates the utility of the polynucleotide molecules of the invention as herbicidal agents. Two dsRNA polynucleotide molecules were designed to target overlapping segments of mRNA encoding phytoene desaturase in tobacco (Nicotiana benthamiana). With reference to SEQ ID NO:2 and FIG. 5, a dsRNA targeting a 192 nt length (shown in bold in FIG. 5) and a 685 nt length (shown in underline in FIG. 5) of the mRNA were made using an Ambion® MEGAscript® kit. Separate dsRNA solutions were prepared. Tobacco plant leaves were pretreated with surfactant solution prepared as in Example 1 and then treated with either one of the dsRNA solutions applying about […] of dsRNA per plant."}, "[4]": {"details": "protocol 3, 29 g/acre, copy number 16, 13 DAT"}, "[5]": {"details": "pre-treatment: Buffer (0.5% Silwet L-77 and 2% ammonium sulfate), herbicide 24 h later (mesotrione 13, fomesafen 23 grams per hectare, 1% COC)"}, "[6]": {"details": "pre-treatment: Untreated, herbicide only (mesotrione 13, fomesafen 23, atrazine 170 grams per hectare of active ingredient, 1% COC)"}},
  "note": "d = 2'-deoxy (DNA); r = 2'-OH (RNA)",
  "data": [
    {"molecule": "IDT [1]: Palmer/EPSPS dsRNA, SEQ ID NO. 83, 84 (chain 1 CUACCAUCAACAAUGGUGUCCAUAC; chain 2 GUAUGGACACCAUUGUUGAUGGUAGUA; chain 1: sugars from the 5' end r23 d2, backbone not given here; chain 2: RNA, backbone not given here)", "values": [
      {"measurement": "Results: % stunted", "setting": "Palmer amaranth; [4]", "value": 51, "unit": "% stunted"}
    ]},
    {"molecule": "IDT [4]: Palmer/EPSPS dsRNA, SEQ ID NO. 89, 90 (chain 1 UGCAAGGUCACCUGGACAGAGAAA; chain 2 UAUUCUCUGUCCAGGUGACCUUGCAAC; listed as RNA, chemistry not fully specified)", "values": [
      {"measurement": "Results: % stunted", "setting": "Palmer amaranth; [4]", "value": 51, "unit": "% stunted"}
    ]},
    {"molecule": "IDT [5]: Palmer/EPSPS dsRNA (21-mer) with blunt ends, SEQ ID NO. 91, 92 (chain 1 AACAUGAACAAAAUGCCAGAU; chain 2 AUCUGGCAUUUUGUUCAUGUU; RNA, backbone not given here)", "values": [
      {"measurement": "Results: % stunted", "setting": "Palmer amaranth; protocol 1, 0.29 g/acre, copy number 33, 54, 55, 18 DAT", "value": 71, "unit": "%"},
      {"measurement": "Results: % stunted", "setting": "Palmer amaranth; protocol 1, 0.29 g/acre, copy number 34, 36, 54, 22 DAT", "value": 14.1, "unit": "%"},
      {"measurement": "Results: % killed", "setting": "Palmer amaranth; protocol 1, 2.9 g/acre each, copy number 34, 36, 54, 22 DAT", "value": 100, "unit": "% kill"},
      {"measurement": "Results: % killed", "setting": "Palmer amaranth; protocol 1, 2.9 g/acre, copy number 33, 54, 55, 18 DAT", "value": 100, "unit": "% killed"}
    ]},
    {"molecule": "IDT [3]: Palmer/EPSPS dsRNA, SEQ ID NO. 87, 88 (chain 1 GGUCGACAACUUGCUGUAUAGUGA; chain 2 AUCACUAUACAGCAAGUUGUCGACCUC; chain 1: sugars from the 5' end r23 d1, 3' dT, backbone not given here; chain 2: RNA, backbone not given here)", "values": [
      {"measurement": "Results: % stunted", "setting": "Palmer amaranth; [4]", "value": 51, "unit": "% stunted"}
    ]},
    {"molecule": "CS(=O)(=O)NC(=O)c1cc(Oc2ccc(C(F)(F)F)cc2Cl)ccc1[N+](=O)[O-]", "note": "[fomesafen]", "values": [
      {"measurement": "Plant height (mm)", "setting": "[1]; [5]", "value": 139, "unit": "mm"},
      {"measurement": "Plant height (mm)", "setting": "[1]; [6]", "value": 158, "unit": "mm"}
    ]},
    {"molecule": "CS(=O)(=O)c1ccc(C(=O)C2C(=O)CCCC2=O)c([N+](=O)[O-])c1", "note": "[mesotrione]", "values": [
      {"measurement": "Plant height (mm)", "setting": "[1]; [5]", "value": 179, "unit": "mm"},
      {"measurement": "Plant height (mm)", "setting": "[1]; [6]", "value": 180, "unit": "mm"}
    ]},
    {"molecule": "CCNc1nc(Cl)nc(NC(C)C)n1", "note": "[atrazine]", "values": [
      {"measurement": "Plant height (mm)", "setting": "[1]; [6]", "value": 146, "unit": "mm"}
    ]},
    {"molecule": "IDT [2]: Palmer/EPSPS dsRNA, SEQ ID NO. 85, 86 (chain 1 AGUUGGUGGGCAAUCAUCAAUUG; chain 2 AACAAUUGAUGAUUGCCCACCAACUCU; chain 1: RNA, 3' dTdT, backbone not given here; chain 2: RNA, backbone not given here)", "values": [
      {"measurement": "Results: % control", "setting": "Palmer amaranth; [4]", "value": 0, "unit": "% control"}
    ]},
    {"molecule": "dsRNA targeting a 192 nt length: dsRNA to Nicotiana benthamiana PDS, positions 914-1105 of SEQ ID NO:38 (nucleic acid, listed as Nicotiana benthamiana, dsRNA of this region) DNA: ACAGATTTCTTCAGGAGAAACATGGTTCAAAAATGGCCTTTTTAGATGGTAACCCTCCTGAGAGACTTTGCATGCCGATTGTGGAACATATTGAGTCAAAAGGTGGCCAAGTCAGACTAAACTCACGAATAAAAAAGATCGAGCTGAATGAGGATGGAAGTGTCAAATGTTTTATACTGAATAATGGCAGTA", "values": [
      {"measurement": "bleaching of leaves", "setting": "[2]", "value": "did not show bleaching of leaves"},
      {"measurement": "plant outcome", "setting": "[3]; 15 days after treatment with dsRNA", "value": "one half of the treated plants appeared to be dead and the other half of the plants had most of the above ground tissues bleached"},
      {"measurement": "phytoene desaturase silencing, leaf bleaching", "setting": "[3]; day 9 after dsRNA treatment, about 0.6 micromoles of dsRNA per plant", "value": "visible leaf bleaching on apical leaves"},
      {"measurement": "Northern blot analysis, siRNAs corresponding to the dsRNAs", "setting": "[3]; in vivo", "value": "presence of siRNAs"}
    ]},
    {"molecule": "HPPD anti-sense ssDNA oligonucleotides: 8 HPPD anti-sense ssDNA oligonucleotides (SEQ ID NOS:141-148) (nucleic acid, DNA, backbone not given here) antisense 1: TCCGTAGCTTACATACCGAAG antisense 2: TCCAAGTGAATAGGAGAAACA antisense 3: AGCAGCTTCTGCGTCTTCTAC antisense 4: ACAGCACGCACGCCAAGACCG antisense 5: CGATGTAAGGAATTTGGTAAA antisense 6: CGAGGGGATTGCAGCAGAAGA antisense 7: GTAGGAGAATACGGTGAAGTA antisense 8: GACCCCAAGAAAATCGTCTGC", "values": [
      {"measurement": "growth reduction relative to the buffer-surfactant control", "setting": "[1]; ssDNA pre-treatment without herbicide", "value": 32, "unit": "%"},
      {"measurement": "Palmer amaranth plant height", "setting": "[1]; ssDNA pre-treatment without herbicide, 40 microliters per plant in 0.5% Silwet L-77 and 2% ammonium sulfate, buffer-surfactant control 185 mm", "value": 125, "unit": "mm"}
    ]},
    {"molecule": "678 by Palmer PDS dsRNA: dsRNA to positions 317-994 of SEQ ID NO:37 (nucleic acid, listed as Amaranthus palmeri, complementary strand) sense: TAGGAGGAAAGGTTGCAGCGTGGAAGGATGAGGATGGTGACTGGTATGAGACTGGGCTACATATATTCTTTGGGGCATATCCAAATGTCCAAAATCTATTTGGAGAACTTGGTATAAATGACCGACTGCAATGGAAGGAGCACTCTATGATTTTTGCAATGCCCAGCAAGCCCGGTGAATTCAGTCGCTTTGATTTTCCCGAAATCCTGCCTGCACCATTAAATGGCATATGGGCAATCCTAAGAAATAATGAAATGCTAACCTGGCCAGAAAAAATCAAGTTTGCCATTGGCTTGTTGCCTGCTATGGCAGGCGGACAGTCATATGTTGAAGCACAAGATGGTTTGAGTGTCCAAGAGTGGATGAGAAAACAAGGAGTACCCGATCGTGTAACTGATGATGTGTTTATTGCCATGTCAAAGGCACTGAACTTCATAAATCCCGATGAACTTTCAATGCAGTGCATCTTGATTGCTCTGAACCGATTCCTGCAGGAGAAACATGGTTCTAAGATGGCCTTCCTAGACGGAAACCCTCCAGAGAGGCTGTGCATGCCTATTGTTAAACACATCGAGTCACTAGGTGGTGAAGTTAAACTTAACTCTCGTATACAAAAGATTCAGTTGGACCAGAGTGGAAGCGTGAAGAGTTTTTTGCTAAATAACGGGAGGGAAATAC", "values": [
      {"measurement": "bleaching of leaves", "setting": "[2]", "value": "showed bleaching of leaves"},
      {"measurement": "bleaching of leaves (FIG. 17)", "setting": "[2]", "value": "showed bleaching of leaves"}
    ]},
    {"molecule": "198 by Palmer PDS dsRNA: dsRNA to positions 797-994 of SEQ ID NO:37 (nucleic acid, listed as Amaranthus palmeri, complementary strand) sense: ACCGATTCCTGCAGGAGAAACATGGTTCTAAGATGGCCTTCCTAGACGGAAACCCTCCAGAGAGGCTGTGCATGCCTATTGTTAAACACATCGAGTCACTAGGTGGTGAAGTTAAACTTAACTCTCGTATACAAAAGATTCAGTTGGACCAGAGTGGAAGCGTGAAGAGTTTTTTGCTAAATAACGGGAGGGAAATAC", "values": [
      {"measurement": "bleaching of leaves", "setting": "[2]", "value": "showed bleaching of leaves"},
      {"measurement": "bleaching of leaves (FIG. 17)", "setting": "[2]", "value": "showed bleaching of leaves"}
    ]}
  ]
}
